This is an account of results in patent US20250388544A1, “HETEROAROMATIC INHIBITORS OF ASTACIN PROTEINASES” (VIVORYON THERAPEUTICS N.V., priority 2019, published 2025).

Common to all, as to assay type: biochemical
The target in one experiment is T1, hMeprin β (Homo sapiens, UniProt Q16820).
T1 sequence (Q16820 62-701): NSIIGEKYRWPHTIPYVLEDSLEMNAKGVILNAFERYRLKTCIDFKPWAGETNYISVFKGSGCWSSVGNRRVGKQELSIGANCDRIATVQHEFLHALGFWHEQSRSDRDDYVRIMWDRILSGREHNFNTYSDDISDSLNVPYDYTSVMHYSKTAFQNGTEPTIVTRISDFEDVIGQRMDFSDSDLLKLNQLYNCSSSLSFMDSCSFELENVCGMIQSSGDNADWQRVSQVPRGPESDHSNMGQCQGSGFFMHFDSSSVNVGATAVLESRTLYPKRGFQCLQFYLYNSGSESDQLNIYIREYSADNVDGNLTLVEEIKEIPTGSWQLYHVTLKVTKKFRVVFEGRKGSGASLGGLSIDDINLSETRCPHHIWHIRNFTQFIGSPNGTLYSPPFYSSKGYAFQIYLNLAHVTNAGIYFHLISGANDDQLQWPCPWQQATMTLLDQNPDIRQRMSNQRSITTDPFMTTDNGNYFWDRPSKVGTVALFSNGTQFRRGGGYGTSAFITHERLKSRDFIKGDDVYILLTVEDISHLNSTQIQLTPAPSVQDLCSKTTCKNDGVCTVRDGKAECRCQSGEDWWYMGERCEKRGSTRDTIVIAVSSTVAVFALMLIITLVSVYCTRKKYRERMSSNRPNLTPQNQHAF
In words: Enzymatic assay, quenched peptide substrate cleavage, method B. To be noted: geometric mean (geometric SD factor in parentheses); for pKi: Morrison's equation, read-out: Meprin beta Ki(app); for pIC50: read-out: Meprin beta IC50. The procedure, abridged:
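Cleavage of internally quenched peptides was read at 340/420 nm and 30° C., with enzyme at 5e-8 to 2e-10 M and substrate at 0.15–80 μM. Inhibitor solutions contained 1% DMSO and substrate 0.5% DMSO. Method B gave Ki(app) values via Morrison's equation, with kinetics measured in at least duplicate on separate days.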

The target in another experiment is T2, hADAM 10 (Homo sapiens, UniProt O14672).
T2 construct: purchased R&D systems
T2 sequence (O14672 214-748): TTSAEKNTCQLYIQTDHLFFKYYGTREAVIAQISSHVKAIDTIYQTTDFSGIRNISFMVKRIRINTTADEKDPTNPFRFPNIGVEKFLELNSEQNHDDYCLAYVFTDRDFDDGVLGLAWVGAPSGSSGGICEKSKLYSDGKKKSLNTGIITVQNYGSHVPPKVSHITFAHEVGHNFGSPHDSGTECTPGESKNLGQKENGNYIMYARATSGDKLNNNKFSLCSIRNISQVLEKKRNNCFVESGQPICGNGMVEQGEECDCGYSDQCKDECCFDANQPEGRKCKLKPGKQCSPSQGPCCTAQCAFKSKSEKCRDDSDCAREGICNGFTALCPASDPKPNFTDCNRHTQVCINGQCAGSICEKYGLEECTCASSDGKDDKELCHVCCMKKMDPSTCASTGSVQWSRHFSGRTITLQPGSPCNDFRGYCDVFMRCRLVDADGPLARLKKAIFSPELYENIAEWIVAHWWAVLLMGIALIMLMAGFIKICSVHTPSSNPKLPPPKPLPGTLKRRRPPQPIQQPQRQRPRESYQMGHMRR
Kind of experiment: Residual enzyme activity of other metalloproteases. Particulars: read-out: Residual enzyme activity ADAM10; for remaining activity at 10 µM: 10 μM inhibitor; for remaining activity at 200 µM: 200 μM inhibitor. The procedure:
(§1) The determination of enzymatic activity was based on the cleavage of internally quenched peptide substrates. A typical assay of 250 μl total volume measured in black 96 well plates consisted of 100 μl buffer, 50 μl enzyme at a final concentration of 5e-8 M to 2e-10 M, 50 μl substrate (0.15 to 80 μM, in buffer, 0.5% DMSO) and 50 μl inhibitor solution (in buffer, 1% DMSO). In case of 125 μl assay volume (black 96 half area well plates) all volumes were cut in half. Enzymatic activity of ADAMs was measured in 384 well plates with 60 μl total assay volume consisting of 20 μl inhibitor, 20 μl buffer, 10 μl enzyme and 10 μl substrate.

For the next experiment, the target named is T3, hADAM 17 (Homo sapiens, UniProt P78536).
T3 construct: purchased R&D systems
T3 sequence (P78536 215-824): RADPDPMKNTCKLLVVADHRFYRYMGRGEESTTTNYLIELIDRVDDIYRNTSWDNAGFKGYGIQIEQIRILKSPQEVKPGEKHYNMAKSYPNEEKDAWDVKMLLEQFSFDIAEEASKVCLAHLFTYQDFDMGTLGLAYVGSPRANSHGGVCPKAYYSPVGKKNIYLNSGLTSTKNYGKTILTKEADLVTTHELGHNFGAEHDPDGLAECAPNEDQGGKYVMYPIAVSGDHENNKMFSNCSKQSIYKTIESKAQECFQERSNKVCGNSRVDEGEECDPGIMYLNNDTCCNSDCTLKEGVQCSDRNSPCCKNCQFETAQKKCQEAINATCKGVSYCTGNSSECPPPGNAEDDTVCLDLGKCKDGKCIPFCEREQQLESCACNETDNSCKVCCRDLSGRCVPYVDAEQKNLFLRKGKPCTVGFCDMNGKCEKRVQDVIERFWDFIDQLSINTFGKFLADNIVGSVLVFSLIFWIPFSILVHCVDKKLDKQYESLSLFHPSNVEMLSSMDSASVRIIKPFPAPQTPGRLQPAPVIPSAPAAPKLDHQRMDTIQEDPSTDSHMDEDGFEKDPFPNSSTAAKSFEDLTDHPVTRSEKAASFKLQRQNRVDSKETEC
In words: Residual enzyme activity of other metalloproteases. To be noted: read-out: Residual enzyme activity ADAM17; for remaining activity at 10 µM: 10 μM inhibitor; for remaining activity at 200 µM: 200 μM inhibitor. As to the method: as §1

The target in the next experiment is T4, hMMP 9 (Homo sapiens, UniProt P14780).
T4 construct: purchased R&D systems
T4 sequence (P14780 107-707 limits assumed): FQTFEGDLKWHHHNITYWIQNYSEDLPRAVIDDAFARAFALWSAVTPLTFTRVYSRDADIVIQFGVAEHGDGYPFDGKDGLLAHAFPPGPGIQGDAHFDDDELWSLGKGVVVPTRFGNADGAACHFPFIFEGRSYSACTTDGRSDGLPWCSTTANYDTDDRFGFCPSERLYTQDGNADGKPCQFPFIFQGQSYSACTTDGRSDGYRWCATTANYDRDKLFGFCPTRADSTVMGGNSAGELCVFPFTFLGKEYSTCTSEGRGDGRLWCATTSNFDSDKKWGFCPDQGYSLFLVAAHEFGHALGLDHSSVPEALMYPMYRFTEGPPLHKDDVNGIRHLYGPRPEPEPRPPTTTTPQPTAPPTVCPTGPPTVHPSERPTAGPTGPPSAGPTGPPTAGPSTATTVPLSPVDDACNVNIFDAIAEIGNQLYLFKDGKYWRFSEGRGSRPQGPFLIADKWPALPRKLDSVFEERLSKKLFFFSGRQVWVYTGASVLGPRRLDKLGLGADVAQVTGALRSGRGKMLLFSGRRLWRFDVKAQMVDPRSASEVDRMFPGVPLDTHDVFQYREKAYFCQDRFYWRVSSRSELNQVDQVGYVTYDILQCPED
In words: Residual enzyme activity of other metalloproteases. To be noted: read-out: Residual enzyme activity MMP9; for remaining activity at 10 µM: 10 μM inhibitor; for remaining activity at 200 µM: 200 μM inhibitor. As to the method:
as §1
(§2) MMPs were activated prior to measurement by APMA (p-aminophenylmercuric acetate) treatment according to manufacturer's instructions (R&D systems).

The target in a further experiment is T5, hMMP 13 (Homo sapiens, UniProt P45452).
T5 construct: purchased R&D systems
Kind of experiment: Residual enzyme activity of other metalloproteases. Particulars: read-out: Residual enzyme activity MMP13; for remaining activity at 10 µM: 10 μM inhibitor; for remaining activity at 200 µM: 200 μM inhibitor. As to the method:
(§3) A typical assay of 250 μl total volume measured in black 96 well plates consisted of 100 μl buffer, 50 μl enzyme at a final concentration of 5e-8 M to 2e-10 M, 50 μl substrate (0.15 to 80 μM, in buffer, 0.5% DMSO) and 50 μl inhibitor solution (in buffer, 1% DMSO). In case of 125 μl assay volume (black 96 half area well plates) all volumes were cut in half. Enzymatic activity of ADAMs was measured in 384 well plates with 60 μl total assay volume consisting of 20 μl inhibitor, 20 μl buffer, 10 μl enzyme and 10 μl substrate.
as §2

The target in a further experiment is T6, hMMP 2 (Homo sapiens, UniProt P08253).
T6 construct: purchased Abnova
T6 sequence (P08253 110-660): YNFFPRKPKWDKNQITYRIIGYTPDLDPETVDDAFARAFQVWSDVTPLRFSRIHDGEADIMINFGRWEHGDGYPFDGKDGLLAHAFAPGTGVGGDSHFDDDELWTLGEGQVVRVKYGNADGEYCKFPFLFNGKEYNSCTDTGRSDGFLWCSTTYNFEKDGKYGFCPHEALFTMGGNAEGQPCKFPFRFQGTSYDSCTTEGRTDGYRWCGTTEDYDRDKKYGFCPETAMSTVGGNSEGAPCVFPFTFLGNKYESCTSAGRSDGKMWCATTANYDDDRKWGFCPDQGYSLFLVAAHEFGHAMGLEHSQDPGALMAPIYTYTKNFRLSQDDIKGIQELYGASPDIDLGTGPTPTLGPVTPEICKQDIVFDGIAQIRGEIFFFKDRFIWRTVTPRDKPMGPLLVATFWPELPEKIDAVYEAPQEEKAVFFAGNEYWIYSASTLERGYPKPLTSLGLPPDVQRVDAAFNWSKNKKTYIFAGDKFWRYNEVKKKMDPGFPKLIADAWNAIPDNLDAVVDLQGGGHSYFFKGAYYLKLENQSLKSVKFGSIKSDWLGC
Kind of experiment: Residual enzyme activity of other metalloproteases. Particulars: read-out: Residual enzyme activity MMP2; for remaining activity at 10 µM: 10 μM inhibitor; for remaining activity at 200 µM: 200 μM inhibitor. The procedure:
as §3, §2

Molecules are shown by their SMILES. pIC50, pKi: −log10 of the molar value.

As for `O=C(Cc1c(-c2ccccc2)nn(Cc2ccc(C(=O)O)cc2)c1-c1ccccc1)NO` [Example 40, 4-[[4-(2-(Hydroxyamino)-2-oxo-ethyl]-3,5-diphenyl-1H-pyrazol-1-yl]methyl]benzoic acid], the pKi on hMeprin β was 8.05. The pIC50 on hMeprin β was 8.05. Further, the remaining activity at 10 µM on hADAM 10 amounted to 91%; on hADAM 17, 67%; on hMMP 9 it was 80%; at hMMP 13, 86%; on hMMP 2, 85%. The remaining activity at 200 µM at hADAM 10 amounted to 43%; on hADAM 17, 9%; on hMMP 9 it was 30%; on hMMP 13 it was 22%; on hMMP 2 it was 24%.

As for `O=C(Cc1c(-c2ccccc2)nn(Cc2cccc(C(=O)O)c2)c1-c1ccccc1)NO` [Example 41, 3-[[4-[2-(Hydroxyamino)-2-oxo-ethyl]-3,5-diphenyl-1H-pyrazol-1-yl]methyl]benzoic acid], the pKi on hMeprin β is 7.96. For the same compound, on hMeprin β, the negative logarithm of the IC50 (pIC50) was 8.00. Besides, the remaining activity at 10 µM at hADAM 10 was found to be 92%; at hADAM 17, 84%; at hMMP 9, 83%; on hMMP 13 it was 83%; at hMMP 2, 89%. Besides, the remaining activity at 200 µM was found to be 66% on hADAM 10; 25% at hADAM 17; 36% at hMMP 9; 34% at hMMP 13; 34% at hMMP 2.

In the case of `O=C(Cc1c(-c2ccccc2)nn(Cc2ccc(Cl)c(O)c2F)c1-c1ccccc1)NO` [Example 42, 2-[1-(4-Chloro-2-fluoro-3-hydroxybenzyl)-3,5-diphenyl-1H-pyrazol-4-yl]ethanehydroxamic acid], the pKi at hMeprin β is 8.05. Also, the negative logarithm of the IC50 (pIC50) at hMeprin β is 8.00. The remaining activity at 10 µM came out at 85% on hADAM 10; 72% at hADAM 17; 70% on hMMP 9; 84% on hMMP 13; 69% on hMMP 2. The remaining activity at 200 µM on hADAM 10 is 34%; at hADAM 17, 14%; at hMMP 9 it was 14%; at hMMP 13 it was 9%; on hMMP 2, 18%.

Regarding `O=C(Cc1c(-c2ccccc2)nn(Cc2ccc3c(c2)OCO3)c1-c1ccccc1)NO` [Example 43, 2-[1-(1,3-Benzodioxol-5-ylmethyl)-3,5-diphenyl-1H-pyrazol-4-yl]ethanehydroxamic acid], at hMeprin β, the pKi was 6.52. Further, the pIC50 at hMeprin β was 6.51. Also, the remaining activity at 10 µM at hADAM 10 is 69%; on hADAM 17 it was 21%; on hMMP 9 it was 74%; at hMMP 13 it was 78%; at hMMP 2, 77%. Further, the remaining activity at 200 µM was 39% on hADAM 10; 4% at hADAM 17; 60% on hMMP 9; 51% at hMMP 13; 60% on hMMP 2.

For the compound `COc1cccc(-c2n[nH]c(-c3ccccc3)c2CC(=O)NO)c1` [Example 47, 2-[3-(3-Methoxyphenyl)-5-phenyl-1H-pyrazol-4-yl]ethanehydroxamic acid], the pKi at hMeprin β was 6.94. The pIC50 on hMeprin β was 6.91. Further, the remaining activity at 10 µM was determined as 68% on hADAM 10; 52% on hADAM 17; 80% at hMMP 9; 85% at hMMP 13; 78% at hMMP 2. The remaining activity at 200 µM amounted to 8% on hADAM 10; 6% at hADAM 17; 33% at hMMP 9; 28% at hMMP 13; 17% at hMMP 2.

For `COc1ccc(-c2n[nH]c(-c3ccccc3)c2CC(=O)NO)cc1OC` [Example 49, 2-[3-(3,4-Dimethoxyphenyl)-5-phenyl-1H-pyrazol-4-yl]ethanehydroxamic acid], the pKi at hMeprin β is 7.08. In addition, at hMeprin β, the pIC50 was 7.08. In addition, the remaining activity at 10 µM at hADAM 10 came to 87%; at hADAM 17, 65%; at hMMP 9, 90%; at hMMP 13, 101%; at hMMP 2 it was 83%. For the same compound, the remaining activity at 200 µM at hADAM 10 was found to be 13%; at hADAM 17, 6%; at hMMP 9, 44%; on hMMP 13, 18%; at hMMP 2, 26%.

For the compound `O=C(Cc1c(-c2ccc3c(c2)OCO3)n[nH]c1-c1ccccc1)NO` [Example 50, 2-[3-(1,3-Benzodioxol-5-yl)-5-phenyl-1H-pyrazol-4-yl]ethanehydroxamic acid], the pKi on hMeprin β is 6.96. For the same compound, the pIC50 on hMeprin β is 6.93. In addition, the remaining activity at 10 µM on hADAM 10 worked out at 59%; at hADAM 17, 51%; at hMMP 9, 72%; on hMMP 13, 71%; on hMMP 2, 41%. Also, the remaining activity at 200 µM is 5% at hADAM 10; 5% on hADAM 17; 16% at hMMP 9; 10% on hMMP 13; 8% on hMMP 2.

Usually pKi stands for the negative decadic logarithm of the Ki, by convention in mol/L. For orientation: pIC50 means −log10 of the IC50, conventionally taken in molar units.
